Experimental data published in patent US9518018B2, “3-alkoxy, thioalkyl and amino-4-amino-6-(substituted)picolinates and their use as herbicides” (Dow AgroSciences LLC, priority 2011, dated 2016).

System: desired test plant species
Test: Foliar-applied postemergence herbicidal activity in direct seeded rice (Table 6)
Type: in vivo
Settings: 21 DAA
From the text: Seeds or nutlets of the desired test plant species were planted in a soil matrix prepared by mixing a loam soil (43 percent silt, 19 percent clay, and 38 percent sand, with a pH of about 8.1 and an organic matter content of about 1.5 percent) and river sand in an 80 to 20 ratio. The soil matrix was contained in plastic pots with a surface area of 139.7 cm^2. When required to ensure good germination and healthy plants, a fungicide treatment and/or other chemical or physical treatment was applied. The plants were grown for 10-17 d in a greenhouse with an approximate 14-h photoperiod which was maintained at about 29° C. during the day and 26° C. during the night. Nutrients and water were added on a regular basis and supplemental lighting was provided with overhead metal halide 1000-Watt lamps as necessary. The plants were employed for testing when they reached the second or third true leaf stage. Treatments consisted of compounds 45, 34, and 66. Weighed amounts of technical compounds were placed in individual 25 mL glass vials and dissolved in 8 mL of 97:3 v/v acetone-DMSO to obtain stock solutions. […] The spray application solutions were prepared by removing 4 mL of the stock solution and diluting with 4 mL of 97:3 v/v acetone-DMSO and continued serial dilution to obtain 1⁄2×, 1⁄4×, 1⁄8×, and 1/16× rates of the high rate. Spray solutions were diluted to the appropriate final concentrations with the addition of 8 mL of an aqueous mixture of 1.875% (v/v) Agri-dex crop oil concentrate. The final 12-mL spray solutions each contained 1.25% (v/v) Agri-dex crop oil concentrate, 32.3% acetone, and 1.0% DMSO. Compound requirements are based upon a 12 mL application volume at a rate of 187 L/ha. Spray solutions were applied to the plant material with an overhead Mandel track sprayer equipped with […] nozzles calibrated to deliver 187 L/ha over an application area of 0.503 square meters (m^2) at a spray height of 18 inches ([…]) above average plant canopy height. Control plants were sprayed in the same manner with the solvent blank. The treated plants and control plants were placed in a greenhouse as described above and watered by sub-irrigation to prevent wash-off of the test compounds. After approximately 3 weeks, the condition of the test plants, compared with that of the untreated plants, was determined visually and scored on a scale of 0 to 100 percent where 0 corresponds to no injury and 100 corresponds to complete kill. By applying the well-accepted probit analysis as described by J. Berkson in Journal of the […], 48, 565 (1953) and by D. Finney in “Probit Analysis” Cambridge University Press (1952) or by plotting the mean data and fitting a logarithmic curve to the portion of the data where there was a dose response using Microsoft Excel®, the above data can be used to calculate GR50 and GR90 values, which are defined as growth reduction factors that correspond to the effective dose of herbicide required to kill or control 50 percent or 90 percent, respectively, of a target plant.

## COc1c(C(=O)OCc2ccccc2)nc(-c2ccc(Cl)c(OC)c2F)c(F)c1N [Compound 66, benzyl 4-amino-6-(4-chloro-2-fluoro-3-methoxyphenyl)-5-fluoro-3-methoxypicolinate]
ECHCO (Echinochloa colonum, junglerice), 4.38 g ae/ha
  Mean Visual Injury (%)-21 Days After Application ECHCO: 80%
ECHCO (Echinochloa colonum, junglerice), 8.75 g ae/ha
  Mean Visual Injury (%)-21 Days After Application ECHCO: 89%
ECHCO (Echinochloa colonum, junglerice), 17.5 g ae/ha
  Mean Visual Injury (%)-21 Days After Application ECHCO: 93%
ECHCO (Echinochloa colonum, junglerice), 35 g ae/ha
  Mean Visual Injury (%)-21 Days After Application ECHCO: 94%
ECHCO (Echinochloa colonum, junglerice), 70 g ae/ha
  Mean Visual Injury (%)-21 Days After Application ECHCO: 94%
ECHCO (Echinochloa colonum, junglerice), dose to kill or control 50 percent
  GR50 ECHCO: <2.19 g ae/ha
ECHCO (Echinochloa colonum, junglerice), dose to kill or control 90 percent
  GR90 ECHCO: 11.6 g ae/ha
LEFCH (Leptochloa chinensis, Chinese sprangletop), 2.19 g ae/ha
  Mean Visual Injury (%)-21 Days After Application LEFCH: 0%
LEFCH (Leptochloa chinensis, Chinese sprangletop), 4.38 g ae/ha
  Mean Visual Injury (%)-21 Days After Application LEFCH: 7%
LEFCH (Leptochloa chinensis, Chinese sprangletop), 8.75 g ae/ha
  Mean Visual Injury (%)-21 Days After Application LEFCH: 15%
LEFCH (Leptochloa chinensis, Chinese sprangletop), 17.5 g ae/ha
  Mean Visual Injury (%)-21 Days After Application LEFCH: 32%
LEFCH (Leptochloa chinensis, Chinese sprangletop), 35 g ae/ha
  Mean Visual Injury (%)-21 Days After Application LEFCH: 26%
LEFCH (Leptochloa chinensis, Chinese sprangletop), 70 g ae/ha
  Mean Visual Injury (%)-21 Days After Application LEFCH: 40%
LEFCH (Leptochloa chinensis, Chinese sprangletop), dose to kill or control 50 percent
  GR50 LEFCH: >70 g ae/ha
LEFCH (Leptochloa chinensis, Chinese sprangletop), dose to kill or control 90 percent
  GR90 LEFCH: >70 g ae/ha
ORYSA (Oryza sativa ‘Clearfield 171’, rice), 2.19 g ae/ha
  Mean Visual Injury (%)-21 Days After Application ORYSA ‘Clearfield 171’: 0%
ORYSA (Oryza sativa ‘Clearfield 171’, rice), 4.38 g ae/ha
  Mean Visual Injury (%)-21 Days After Application ORYSA ‘Clearfield 171’: 0%
ORYSA (Oryza sativa ‘Clearfield 171’, rice), 8.75 g ae/ha
  Mean Visual Injury (%)-21 Days After Application ORYSA ‘Clearfield 171’: 1%
ORYSA (Oryza sativa ‘Clearfield 171’, rice), 17.5 g ae/ha
  Mean Visual Injury (%)-21 Days After Application ORYSA ‘Clearfield 171’: 2%
ORYSA (Oryza sativa ‘Clearfield 171’, rice), 35 g ae/ha
  Mean Visual Injury (%)-21 Days After Application ORYSA ‘Clearfield 171’: 6%
ORYSA (Oryza sativa ‘Clearfield 171’, rice), 70 g ae/ha
  Mean Visual Injury (%)-21 Days After Application ORYSA ‘Clearfield 171’: 8%
ORYSA (Oryza sativa ‘Clearfield 171’, rice), dose to kill or control 50 percent
  GR50 ORYSA ‘Clearfield 171’: >70 g ae/ha
ORYSA (Oryza sativa ‘Clearfield 171’, rice), dose to kill or control 90 percent
  GR90 ORYSA ‘Clearfield 171’: >70 g ae/ha
ORYSA (Oryza sativa ‘Wells’, rice), 2.19 g ae/ha
  Mean Visual Injury (%)-21 Days After Application ORYSA ‘Wells’: 0%
ORYSA (Oryza sativa ‘Wells’, rice), 4.38 g ae/ha
  Mean Visual Injury (%)-21 Days After Application ORYSA ‘Wells’: 0%
ORYSA (Oryza sativa ‘Wells’, rice), 8.75 g ae/ha
  Mean Visual Injury (%)-21 Days After Application ORYSA ‘Wells’: 0%
ORYSA (Oryza sativa ‘Wells’, rice), 17.5 g ae/ha
  Mean Visual Injury (%)-21 Days After Application ORYSA ‘Wells’: 2%
ORYSA (Oryza sativa ‘Wells’, rice), 35 g ae/ha
  Mean Visual Injury (%)-21 Days After Application ORYSA ‘Wells’: 0%
ORYSA (Oryza sativa ‘Wells’, rice), 70 g ae/ha
  Mean Visual Injury (%)-21 Days After Application ORYSA ‘Wells’: 0%
ORYSA (Oryza sativa ‘Wells’, rice), dose to kill or control 50 percent
  GR50 ORYSA ‘Wells’: >70 g ae/ha
ORYSA (Oryza sativa ‘Wells’, rice), dose to kill or control 90 percent
  GR90 ORYSA ‘Wells’: >70 g ae/ha
SCPJU (Scirpus juncoides, Japanese bulrush), 2.19 g ae/ha
  Mean Visual Injury (%)-21 Days After Application SCPJU: 100%
SCPJU (Scirpus juncoides, Japanese bulrush), 4.38 g ae/ha
  Mean Visual Injury (%)-21 Days After Application SCPJU: 88%
SCPJU (Scirpus juncoides, Japanese bulrush), 8.75 g ae/ha
  Mean Visual Injury (%)-21 Days After Application SCPJU: 100%
SCPJU (Scirpus juncoides, Japanese bulrush), 17.5 g ae/ha
  Mean Visual Injury (%)-21 Days After Application SCPJU: 100%
SCPJU (Scirpus juncoides, Japanese bulrush), 35 g ae/ha
  Mean Visual Injury (%)-21 Days After Application SCPJU: 100%
SCPJU (Scirpus juncoides, Japanese bulrush), 70 g ae/ha
  Mean Visual Injury (%)-21 Days After Application SCPJU: 100%
SCPJU (Scirpus juncoides, Japanese bulrush), dose to kill or control 50 percent
  GR50 SCPJU: <42.19 g ae/ha
SCPJU (Scirpus juncoides, Japanese bulrush), dose to kill or control 90 percent
  GR90 SCPJU: 4.9 g ae/ha
SEBEX (Sesbania exaltata, hemp sesbania), 2.19 g ae/ha
  Mean Visual Injury (%)-21 Days After Application SEBEX: 53%
SEBEX (Sesbania exaltata, hemp sesbania), 4.38 g ae/ha
  Mean Visual Injury (%)-21 Days After Application SEBEX: 90%
SEBEX (Sesbania exaltata, hemp sesbania), 8.75 g ae/ha
  Mean Visual Injury (%)-21 Days After Application SEBEX: 99%
SEBEX (Sesbania exaltata, hemp sesbania), 17.5 g ae/ha
  Mean Visual Injury (%)-21 Days After Application SEBEX: 99%
SEBEX (Sesbania exaltata, hemp sesbania), 35 g ae/ha
  Mean Visual Injury (%)-21 Days After Application SEBEX: 100%
SEBEX (Sesbania exaltata, hemp sesbania), 70 g ae/ha
  Mean Visual Injury (%)-21 Days After Application SEBEX: 100%
SEBEX (Sesbania exaltata, hemp sesbania), dose to kill or control 50 percent
  GR50 SEBEX: <2.19 g ae/ha
SEBEX (Sesbania exaltata, hemp sesbania), dose to kill or control 90 percent
  GR90 SEBEX: 5.8 g ae/ha
